Consider 30 molecules from patent US20230091047A1 (priority 2019, published 2023).

Structures are written as SMILES. Read-outs that look alike come from different tables or passages of the source. Some results are limits rather than exact numbers.

Data set [1] relates to HBV (HepG2.117 cell line, inducibly HBV producing). As to the kind of experiment: Anti-HBV activity: intracellular HBV DNA by real-time PCR in HepG2.117 cells after 3 days of treatment. Type of data set: cell-based, hepatitis B virus. The method, then:
The anti HBV activity was measured using the HepG2.117 cell line, a stable, inducibly HBV producing cell line, which replicates HBV in the absence of doxycycline (Tet-off system). The HepG2 cell line is available from ATCCR under number HB-8065. Transfection of the HepG2 cell line can be as described in Sun and Nassal 2006 Journal of Hepatology 45 (2006) 636-645 “Stable HepG2- and Huh7-based human hepatoma cell lines for efficient regulated expression of infectious hepatitis B virus”.
For the antiviral assay, HBV replication was induced, followed by a treatment with serially diluted compound in 96-well plates. After 3 days of treatment, the antiviral activity was determined by quantification of intracellular HBV DNA using real-time PCR and an HBV specific primer set and probe.
(Real-time PCR tracks product formation cycle by cycle.)

Data set [2] is described as follows: in vitro. Type of data set: cell-based. The following applies: human, HepG2 or HepG2.117 cells, mean value. The method, then: Cytotoxicity of the compounds was tested using HepG2 or HepG2.117 cells, incubated for 3 or 4 days in the presence of compounds. The viability of the cells was assessed using the PERKIN ELMER ATPlite Luminescence Assay System.”
Where [3] appears, read: Hepatitis B virus, HepG2.117, 72 h, HepG2.117 cells, intracellular HBV DNA by real-time PCR, 3 days of treatment, mean value; read-out: EC50 (μM, mean value).
Where [4] appears, read: ATPlite, 3-days incubation (not marked with *).
The mark [5] stands for this setting: 3-days incubation (unmarked values), ATPlite.
[6] abbreviates: Hepatitis B virus, HepG2.117, 72 h, HepG2.117 cells, 3 days of treatment, intracellular HBV DNA by real-time PCR; mean value; read-out: EC50 (μM, mean value).
Where [7] appears, read: 3-days incubation (unmarked values), ATPlite viability.

`CNC(=O)c1ccc(-n2c(N[C@@H](CC3CC3)c3ccccc3)nc3c(c2=O)C[C@@H](C)N(C(=O)c2ccc(Cl)c(Cl)c2)C3)cc1` (single isomer, unassigned) [Compound C437b]: in data set [1] (setting [3]), the EC50 – broadly, the concentration that produces a half-maximal response – turned out to be 0.91 µM. For the same molecule, the cytotoxic concentration (CC50) (in general, the concentration giving 50% cytotoxicity) at 3 days in data set [2] (setting [4]) stood at 29.4 µM.

Regarding `CNC(=O)c1ccc(-n2c(NC(C)C)nc3c(c2=O)C[C@@H](C)N(C(=O)c2ccc(Cl)c(Cl)c2)C3)c(OC)c1` (single isomer, unassigned) [Compound C314a], the EC50 in data set [1] (HepG2.117 cells, 3 days of treatment, intracellular HBV DNA by real-time PCR; mean value; read-out: EC50 (μM, mean value)) stood at 0.1 µM. In data set [2] (setting [5]), this molecule showed a CC50 at 3 days above 50 µM.

In the case of `CNC(=O)c1ncc(-n2c(NC(C)C)nc3c(c2=O)C[C@@H](C)N(C(=O)c2ccc(Cl)c(C(F)(F)F)c2)C3)n1C` [Compound C671], the 50% effective concentration (EC50) in data set [1] (setting [3]) is 0.05 µM. In data set [2] (setting [4]), this molecule showed a 50% cytotoxic concentration (CC50) at 3 days above 50 µM.

On to `CC(C)Nc1nc2c(c(=O)n1-c1ccc(C(=O)NC3CC3)cc1Cl)C[C@@H](C)N(C(=O)c1ccc(Cl)c(C(F)(F)F)c1)C2` (single isomer, unassigned) [Compound C673a], for which the EC50 in data set [1] (setting [3]) turned out to be 0.03 µM. Moreover, the half-maximal cytotoxic concentration (CC50) at 3 days in data set [2] (setting [4]) is above 25 µM.

In the case of `CNC(=O)c1ccc(-n2c(N[C@H](C)C3CCC3)nc3c(c2=O)C[C@@H](C)N(C(=O)c2ccc(Cl)c(Cl)c2)C3)cc1` (single isomer, unassigned) [Compound C406a], the half-maximal effective concentration (EC50) in data set [1] (setting [3]) was 0.18 µM. The cytotoxic concentration (CC50) at 3 days in data set [2] (setting [4]) was found to be 31.3 µM.

Consider `CNC(=O)c1ccc(-n2c(NC3COC(C4CC4)C3)nc3c(c2=O)C[C@@H](C)N(C(=O)c2ccc(Cl)c(Cl)c2)C3)cc1` (stereo partly drawn) [Compound C549], for which the half-maximal effective concentration (EC50) in data set [1] (setting [3]) turned out to be 1.22 µM. In addition, the CC50 at 3 days in data set [2] (setting [4]) is above 50 µM.

Turning to `CC[C@H]1Cc2c(nc(NC(C)C)n(-c3ccc(S(C)(=O)=O)cc3)c2=O)CN1C(=O)c1ccc(Cl)c(Cl)c1` (single isomer, unassigned) [Compound C158B, (6*S)-7-(3,4-dichlorobenzoyl)-6-ethyl-3-[4-(methanesulfonyl)phenyl]-2-[(propan-2-yl)amino]-5,6,7,8-tetrahydropyrido[3,4-d]pyrimidin-4(3H)-one], in data set [1] (setting [6]), the EC50 was found to be 2.13 µM. The molecule also gave a half-maximal cytotoxic concentration (CC50) at 3 days in data set [2] (setting [5]) of 35.7 µM.

As for `CNc1nc2c(c(=O)n1-c1ccccc1OC)CCN(C(=O)c1ccc(Cl)c(Cl)c1)C2` [Compound C11, 7-(3,4-dichlorobenzoyl)-3-(2-methoxyphenyl)-2-(methylamino)-5,6,7,8-tetrahydropyrido[3,4-d]pyrimidin-4(3H)-one], in data set [1] (setting [6]), the EC50 was 6.41 µM. Further, the half-maximal cytotoxic concentration (CC50) at 4 days in data set [2] (4-days incubation (values marked with *), ATPlite) is above 50 µM.

Turning to `CNC(=O)c1ccc(-n2c(NC(C)c3ccc(S(C)(=O)=O)cc3)nc3c(c2=O)C[C@@H](C)N(C(=O)c2ccc(Cl)c(Cl)c2)C3)cc1` (stereo partly drawn) [Compound C412], the EC50 in data set [1] (setting [3]) came out at 1.6 µM. In data set [2] (setting [4]), the CC50 at 3 days was above 50 µM.

Take `CNC(=O)c1ccc(-n2c(N(C)C34CC(C3)C4)nc3c(c2=O)C[C@@H](C)N(C(=O)c2ccc(Cl)c(Cl)c2)C3)cc1` [Compound C345, 4-[(6R)-2-[(bicyclo[1.1.1]pentan-1-yl)(methyl)amino]-7-(3,4-dichlorobenzoyl)-6-methyl-4-oxo-5,6,7,8-tetrahydropyrido[3,4-d]pyrimidin-3(4H)-yl]-N-methylbenzamide]: the concentration for a half-maximal effect (EC50) in data set [1] (setting [6]) turned out to be 0.32 µM. In data set [2] (setting [5]), this molecule displayed a CC50 at 3 days of 21.6 µM.

As for `COc1ccccc1-n1c(N[C@@H](C)CO)nc2c(c1=O)CCN(C(=O)c1ccc(Cl)c(Cl)c1)C2` (single isomer, unassigned) [Compound C62Ba, 7-(3,4-dichlorobenzoyl)-2-{[(2*S)-1-hydroxypropan-2-yl]amino}-3-(2-methoxyphenyl)-5,6,7,8-tetrahydropyrido[3,4-d]pyrimidin-4(3H)-one], the EC50 in data set [1] (setting [6]) was found to be 3.65 µM. The molecule further displayed a CC50 at 3 days in data set [2] (setting [5]) above 50 µM.

As to `CNC(=O)c1ccc(-n2c(NC(C)C)nc3c(c2=O)C[C@@H](C)N(C(=O)c2ccc(Cl)c(C(F)(F)F)c2)C3)nc1` [Compound C698], in data set [1] (setting [6]), the concentration for a half-maximal effect (EC50) stood at 0.02 µM. This molecule gave a CC50 at 3 days in data set [2] (setting [7]) above 50 µM.

With `Cc1noc2cc(-n3c(NC(C)C)nc4c(c3=O)C[C@@H](C)N(C(=O)c3ccc(Cl)c(Cl)c3)C4)ccc12` [Compound C395], in data set [1] (setting [3]), the 50% effective concentration (EC50) is 0.15 µM. In data set [2] (setting [4]), this molecule returned a CC50 at 3 days above 50 µM.

In the case of `CNC(=O)c1ccc(-n2c(NC(C)C)nc3c(c2=O)CCN(C(=O)c2ccc(Cl)c(Cl)c2)C3)cc1F` [Compound C219, 4-[7-(3,4-dichlorobenzoyl)-4-oxo-2-[(propan-2-yl)amino]-5,6,7,8-tetrahydropyrido[3,4-d]pyrimidin-3(4H)-yl]-2-fluoro-N-methylbenzamide], the EC50 in data set [1] (setting [6]) came to 0.28 µM. This molecule also displayed a CC50 at 3 days in data set [2] (setting [5]) above 50 µM.

Turning to `COc1ccc(CNc2nc3c(c(=O)[nH]2)C[C@@H](C)N(C(=O)c2ccc(Cl)c(Cl)c2)C3)cc1` [Compound C63A, (6R)-7-(3,4-dichlorobenzoyl)-2-{[(4-methoxyphenyl)methyl]amino}-6-methyl-5,6,7,8-tetrahydropyrido[3,4-d]pyrimidin-4(3H)-one], in data set [1] (setting [6]), the 50% effective concentration (EC50) was 3.58 µM. The same molecule yielded a CC50 at 3 days in data set [2] (setting [5]) of 30.4 µM.

Consider `Cc1coc2ccc(C(=O)N3CCc4c(nc(NC(C)C)n(-c5ccc(S(C)(=O)=O)cc5)c4=O)C3)cc12` [Compound C224, 3-[4-(methanesulfonyl)phenyl]-7-(3-methyl-1-benzofuran-5-carbonyl)-2-[(propan-2-yl)amino]-5,6,7,8-tetrahydropyrido[3,4-d]pyrimidin-4(3H)-one], for which the EC50 in data set [1] (setting [6]) stood at 6.71 µM. The molecule further yielded a half-maximal cytotoxic concentration (CC50) at 3 days in data set [2] (setting [5]) above 50 µM.

Regarding `CNC(=O)c1ncc(-n2c(N[C@@H](C)c3ccc(OC(F)(F)F)cc3)nc3c(c2=O)C[C@@H](C)N(C(=O)c2ccc(Cl)c(Cl)c2)C3)n1C` [Compound C620], the half-maximal effective concentration (EC50) in data set [1] (setting [3]) was found to be 0.17 µM. This molecule also came in with a cytotoxic concentration (CC50) at 3 days in data set [2] (setting [4]) above 50 µM.

Consider `CNC(=O)c1ccc(-n2c(N[C@@H](C)c3ccccc3F)nc3c(c2=O)C[C@@H](C)N(C(=O)c2ccc(Cl)c(Cl)c2)C3)cc1` [Compound C316, 4-[(6R)-7-(3,4-dichlorobenzoyl)-2-{[(1S)-1-(2-fluorophenyl)ethyl]amino}-6-methyl-4-oxo-5,6,7,8-tetrahydropyrido[3,4-d]pyrimidin-3(4H)-yl]-N-methylbenzamide], for which the EC50 in data set [1] (setting [6]) was 0.13 µM. In data set [2] (setting [5]), the half-maximal cytotoxic concentration (CC50) at 3 days was 27.8 µM.

Consider `CNC(=O)c1ccc(-n2c(NC(C)C)nc3c(c2=O)C[C@@H](C)N(C(=O)c2ccc4[nH]c(=O)n(C)c4c2)C3)cc1` [Compound C509], for which, in data set [1] (setting [3]), the EC50 was above 25 µM. Besides, the CC50 at 3 days in data set [2] (setting [4]) was above 50 µM.

`CNC(=O)c1ccc(-n2c(N[C@H](C)c3ccnn3C)nc3c(c2=O)C[C@@H](C)N(C(=O)c2ccc(Cl)c(Cl)c2)C3)cc1` (single isomer, unassigned) [Compound C372a]: the EC50 in data set [1] (setting [6]) stood at 5.42 µM. This molecule yielded a 50% cytotoxic concentration (CC50) at 3 days in data set [2] (setting [5]) above 50 µM.

`CNC(=O)c1ccc(-n2c(NC(C)C)nc3c(c2=O)C[C@@H](C)N(C(=O)c2cc(C)c(F)c(C)c2)C3)cc1` [Compound C501]: in data set [1] (setting [3]), the EC50 was 0.36 µM. The half-maximal cytotoxic concentration (CC50) at 3 days in data set [2] (setting [4]) is above 50 µM.

In data set [2] (setting [5]), `CC(C)Nc1nc2c(c(=O)n1-c1ccc(S(C)(=O)=O)cc1)CCN(C(=O)c1cc3cnccc3[nH]1)C2` [Compound C369] returned a half-maximal cytotoxic concentration (CC50) at 3 days above 50 µM.

Regarding `CNC(=O)c1ccc(-n2c(NCc3cnn(-c4ccccc4)n3)nc3c(c2=O)C[C@@H](C)N(C(=O)c2ccc(Cl)c(Cl)c2)C3)cc1` [Compound C464], the concentration giving a half-maximal response (EC50) in data set [1] (setting [3]) came out at 0.62 µM.

`CC(C)Nc1nc2c(c(=O)n1-c1ccc(S(C)(=O)=O)cc1)CCN(C(=O)c1cc3ncccc3[nH]1)C2` [Compound C368] displayed a CC50 at 3 days in data set [2] (setting [5]) above 50 µM.

As to `CC(C)Nc1nc2c(c(=O)n1-c1ccc(C(=O)N3CCOCC3)cc1)C[C@@H](C)N(C(=O)c1ccc(Cl)c(C(F)(F)F)c1)C2` [Compound C649], the CC50 at 3 days in data set [2] (setting [4]) was above 50 µM.

The molecule `COc1ccc(CNc2nc3c(c(=O)n2-c2ccc(S(C)(=O)=O)cc2)C[C@H](c2ccc(F)cc2)N(C(=O)c2ccc(Cl)c(Cl)c2)C3)cc1` (single isomer, unassigned) [Compound C109B, (6*R)-7-(3,4-dichlorobenzoyl)-6-(4-fluorophenyl)-3-[4-(methanesulfonyl)phenyl]-2-{[(4-methoxyphenyl)methyl]amino}-5,6,7,8-tetrahydropyrido[3,4-d]pyrimidin-4(3H)-one] registered a CC50 at 3 days in data set [2] (setting [5]) above 50 µM.

With `CNC(=O)c1ccc(-n2c(N[C@@H](C)c3ccc(C(F)(F)F)cc3)nc3c(c2=O)C[C@@H](C)N(C(=O)c2ccc(Cl)c(C(F)(F)F)c2)C3)cc1` [Compound C650], in data set [1] (setting [3]), the EC50 was 0.05 µM.

`CC(C)Nc1nc2c(c(=O)n1-c1ccc(S(C)(=O)=O)cc1)CCN(C(=O)c1cc3cc(Cl)ccc3[nH]1)C2` [Compound C357] came in with a 50% cytotoxic concentration (CC50) at 3 days in data set [2] (setting [5]) above 50 µM.

In the case of `CNC(=O)c1ncc(-n2c(NC)nc3c(c2=O)C[C@@H](C)N(C(=O)c2ccc(Cl)c(C(F)(F)F)c2)C3)n1C` [Compound C702], in data set [2] (setting [7]), the half-maximal cytotoxic concentration (CC50) at 3 days was above 50 µM.

For `CNC(=O)c1ccc(-n2c(N[C@@H](C)c3ccc(C(F)(F)F)c(F)c3)nc3c(c2=O)C[C@@H](C)N(C(=O)c2ccc(Cl)c(Cl)c2)C3)cc1` (single isomer, unassigned) [Compound C659b], in data set [1] (setting [3]), the EC50 is above 2.5 µM.
